Data from patent US9096596B2 (Janssen Pharmaceutica NV, priority 2013, dated 2015).
Like-named read-outs stand apart in the source and are kept apart here.

What was measured:
P2X7 [1] = molecular target: T1, P2X7 (Homo sapiens (Human), UniProt Q99572); experiment: Radioligand binding, human P2X7-1321N1 cell membranes, tracer tritiated A-804598
Method: On the day of the experiment, cell membrane preparations were made according to standard published methods. […] The compound can be prepared as described in the literature. […] The assay was terminated by filtration (GF/B filters pre-soaked with 0.3% PEI) and washed with washing buffer (Tris-HCl 50 mM). The IC50 generated in the binding assay was corrected for tracer concentration and affinity of the tracer to derive at the affinity (Ki) of the test compounds.

P2X7 [2] = molecular target: T1, P2X7; experiment: Ca2+ flux (FLIPR) in 1321N1 cells expressing recombinant human P2X7 channel; format: cell-based; settings: 250 μM BzATP, Calcium-4 dye
Method: (§1) 1321N1 cells expressing the recombinant human, rat or mouse P2X7 channel was cultured in HyQ DME/(HyClone/Dulbecco's Modified Eagle Medium) high glucose supplemented with 10% Fetal Bovine Serum (FBS) and appropriate selection marker. Cells were seeded at a density of 25000 cells/well (96-well clear bottom black walled plates) in 100 μl volume/well. On the day of the experiment, cell plates were washed with assay buffer, containing (in mM): 130 NaCl, 2 KCl, 1 CaCl2, 1 MgCl2, 10 HEPES, 5 glucose; pH 7.40 and 300 mOs. After the wash, cells were loaded with the Calcium-4 dye (Molecular Device) and incubated in the dark for 60 minutes. Test compounds were prepared at 250× the test concentration in neat DMSO. Intermediate 96-well compound plates were prepared by transferring 1.2 μL of the compound into 300 μL of assay buffer. A further 3× dilution occurred when transferring 50 μL/well of the compound plate to 100 μL/well in the cell plate. Cells were incubated with test compounds and dye for 30 minutes. […] The fluorescence change was measured 180 seconds after adding the agonist.

rat P2X7 = rat P2X7 (Rattus norvegicus (Rat), UniProt Q64663); experiment: Ca2+ flux (FLIPR) in 1321N1 cells expressing recombinant rat P2X7 channel; format: cell-based; settings: 250 μM BzATP, Calcium-4 dye
Method: as §1

P2X7 [3] = molecular target: T1, P2X7; experiment: P2X7 antagonism in human PBMCs (IL-1β release, ELISA); format: cell-based; settings: test compound 10 μM, IL-1β release in human PBMCs, LPS 30 ng/ml + Bz-ATP 0.5 mM, read-out: PBMC 10 μM (% control)
Method: Human blood was collected using a blood donor program. […] Cells were incubated for an additional 1.5 hours. […] In Table 2, when the data cell has been left blank, it is intended to mean that the compound was not tested in that assay.

[4] = human P2X7-1321N1 membranes, 1 hour at 4° C., IC50 corrected for tracer concentration and affinity

T1 sequence (Q99572 whole entry): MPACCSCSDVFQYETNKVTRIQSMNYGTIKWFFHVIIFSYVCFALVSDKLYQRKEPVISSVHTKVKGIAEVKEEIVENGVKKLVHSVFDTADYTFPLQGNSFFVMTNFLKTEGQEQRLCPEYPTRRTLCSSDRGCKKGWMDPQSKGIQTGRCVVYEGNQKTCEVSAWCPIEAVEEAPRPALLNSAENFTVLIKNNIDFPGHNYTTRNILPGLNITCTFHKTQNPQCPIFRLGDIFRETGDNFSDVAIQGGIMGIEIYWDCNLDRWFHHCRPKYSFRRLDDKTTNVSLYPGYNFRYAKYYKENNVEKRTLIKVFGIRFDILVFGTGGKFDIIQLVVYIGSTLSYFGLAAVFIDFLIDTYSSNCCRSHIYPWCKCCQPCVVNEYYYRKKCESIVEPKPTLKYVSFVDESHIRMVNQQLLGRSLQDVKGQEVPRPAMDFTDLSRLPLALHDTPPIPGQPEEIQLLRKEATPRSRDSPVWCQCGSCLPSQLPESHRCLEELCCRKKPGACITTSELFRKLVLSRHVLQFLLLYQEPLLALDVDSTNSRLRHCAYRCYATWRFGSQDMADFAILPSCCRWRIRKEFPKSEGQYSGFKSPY
rat P2X7, sequence (Q64663 whole entry): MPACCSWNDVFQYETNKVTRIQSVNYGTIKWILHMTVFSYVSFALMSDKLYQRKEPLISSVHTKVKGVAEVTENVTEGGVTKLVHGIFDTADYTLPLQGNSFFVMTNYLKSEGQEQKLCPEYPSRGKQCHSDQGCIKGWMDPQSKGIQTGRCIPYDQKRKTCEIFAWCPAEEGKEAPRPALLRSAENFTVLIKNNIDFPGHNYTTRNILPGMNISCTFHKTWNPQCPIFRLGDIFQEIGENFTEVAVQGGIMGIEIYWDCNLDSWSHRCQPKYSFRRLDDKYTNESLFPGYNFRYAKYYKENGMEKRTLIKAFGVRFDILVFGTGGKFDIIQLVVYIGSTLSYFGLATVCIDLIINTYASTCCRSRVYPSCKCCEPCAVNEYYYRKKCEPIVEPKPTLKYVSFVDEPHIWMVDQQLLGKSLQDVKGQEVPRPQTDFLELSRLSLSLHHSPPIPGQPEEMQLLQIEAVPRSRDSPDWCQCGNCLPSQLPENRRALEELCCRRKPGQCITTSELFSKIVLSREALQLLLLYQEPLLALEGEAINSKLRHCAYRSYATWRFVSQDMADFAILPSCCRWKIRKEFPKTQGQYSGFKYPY

Ki (P2X7 [1]) | IC50 (P2X7 [2]) | IC50 (rat P2X7) | Ki (P2X7 [1]; [4]) | remaining activity at 10 µM (P2X7 [3]) | SMILES
7.9 nM | 13.6 nM | – | – | – | Cc1nc2c(c(-c3ccn[nH]3)n1)C[C@@H](C)N(C(=O)c1cccc(C(F)(F)F)c1C)C2 (single isomer, unassigned) [Example 78, (R*)-(2,6-dimethyl-4-(1H-pyrazol-5-yl)-5,6-dihydropyrido[3,4-d]pyrimidin-7(8H)-yl)(2-methyl-3-(trifluoromethyl)phenyl)methanone]
11.5 nM | 17.2 nM | – | – | – | Cc1nc2c(c(-c3ccn[nH]3)n1)C[C@H](C)N(C(=O)c1ccc(Cl)cc1F)C2 (single isomer, unassigned) [Example 89, (S*)-(4-chloro-2-fluorophenyl)(2,6-dimethyl-4-(1H-pyrazol-5-yl)-5,6-dihydropyrido[3,4-d]pyrimidin-7(8H)-yl)methanone]
31.6 nM | 64.7 nM | 101 nM | – | – | Cc1nc2c(c(-c3ccn[nH]3)n1)C[C@H](C)N(C(=O)c1ccc(F)cc1F)C2 (single isomer, unassigned) [Example 95, (S*)-(2,4-difluorophenyl)(2,6-dimethyl-4-(1H-pyrazol-5-yl)-5,6-dihydropyrido[3,4-d]pyrimidin-7(8H)-yl)methanone]
– | 29.9 nM | 1270 nM | 224 nM | – | O=C(c1cccc(C(F)(F)F)c1Cl)N1CCc2c(ncnc2-c2ccccc2)C1 [Example 1, 7-{[2-Chloro-3-(trifluoromethyl)phenyl]carbonyl}-4-phenyl-5,6,7,8-tetrahydropyrido[3,4-d]pyrimidine]
– | 798 nM | 4250 nM | – | 2.5% | Cc1nc2c(c(-c3ccn[nH]3)n1)CC(C)N(C(=O)c1ccc(C#N)cc1C)C2 (centres unmarked) [Example 3, 4-(2,6-dimethyl-4-(1H-pyrazol-5-yl)-5,6,7,8-tetrahydropyrido[3,4-d]pyrimidine-7-carbonyl)-3-methylbenzonitrile]
– | 388 nM | 12500 nM | – | – | O=C(c1cccc(Cl)c1Cl)N1CCc2c(ncnc2-c2cn[nH]c2)C1 [Example 4, 7-[(2,3-Dichlorophenyl)carbonyl]-4-(1H-pyrazol-4-yl)-5,6,7,8-tetrahydropyrido[3,4-d]pyrimidine]
– | 12800 nM | > 10000 nM | – | – | Cn1cc(-c2ncnc3c2CCN(C(=O)c2cccc(Cl)c2Cl)C3)cn1 [Example 5, 7-[(2,3-Dichlorophenyl)carbonyl]-4-(1-methyl-1H-pyrazol-4-yl)-5,6,7,8-tetrahydropyrido[3,4-d]pyrimidine]
– | 13200 nM | > 10000 nM | – | 20.4% | O=C(c1cc(F)c(F)cc1Cl)N1CCc2c(ncnc2-c2cnccn2)C1 [Example 16, 7-[(2-Chloro-4,5-difluorophenyl)carbonyl]-4-pyrazin-2-yl-5,6,7,8-tetrahydropyrido[3,4-d]pyrimidine]
– | 280 nM | – | 39.8 nM | -15.5% | O=C(c1ccc(F)cc1Cl)N1CCc2c(ncnc2-c2ccn[nH]2)C1 [Example 21]
– | 198 nM | 28100 nM | – | – | O=C(c1cccc(Cl)c1Cl)N1CCc2c(ncnc2-n2cccn2)C1 [Example 22, 7-[(2,3-Dichlorophenyl)carbonyl]-4-(1H-pyrazol-1-yl)-5,6,7,8-tetrahydropyrido[3,4-d]pyrimidine]
– | 117 nM | 4550 nM | 427 nM | – | Cc1nc2c(c(-c3ccccc3)n1)CCN(C(=O)c1cccc(Cl)c1Cl)C2 [Example 27, 7-[(2,3-Dichlorophenyl)carbonyl]-2-methyl-4-phenyl-5,6,7,8-tetrahydropyrido[3,4-d]pyrimidine]
– | 12.1 nM | – | 50.1 nM | – | O=C(c1cccc(C(F)(F)F)c1Cl)N1CCc2c(ncnc2-c2nccs2)C1 [Example 37, 7-{[2-Chloro-3-(trifluoromethyl)phenyl]carbonyl}-4-(1,3-thiazol-2-yl)-5,6,7,8-tetrahydropyrido[3,4-d]pyrimidine]
– | 63.4 nM | – | 77.6 nM | – | O=C(c1cccc(Cl)c1Cl)N1CCc2c(ncnc2-c2nccs2)C1 [Example 38, 7-[(2,3-Dichlorophenyl)carbonyl]-4-(1,3-thiazol-2-yl)-5,6,7,8-tetrahydropyrido[3,4-d]pyrimidine]
– | 20 nM | – | 79.4 nM | – | O=C(c1cccc(C(F)(F)F)c1Cl)N1CCc2c(ncnc2-c2ccc[nH]2)C1 [Example 42, 7-{[2-Chloro-3-(trifluoromethyl)phenyl]carbonyl}-4-(1H-pyrrol-2-yl)-5,6,7,8-tetrahydropyrido[3,4-d]pyrimidine]
– | 34.8 nM | 156 nM | 63.1 nM | – | Cc1nc2c(c(-c3cscn3)n1)CCN(C(=O)c1cccc(C(F)(F)F)c1Cl)C2 [Example 44, 7-{[2-Chloro-3-(trifluoromethyl)phenyl]carbonyl}-2-methyl-4-(1,3-thiazol-4-yl)-5,6,7,8-tetrahydropyrido[3,4-d]pyrimidine]
– | 5010 nM | 10000 nM | 2000 nM | – | Cc1nc2c(c(-n3ccnn3)n1)CCN(C(=O)c1cccc(C(F)(F)F)c1Cl)C2 [Example 48, 7-{[2-Chloro-3-(trifluoromethyl)phenyl]carbonyl}-2-methyl-4-(1H-1,2,3-triazol-1-yl)-5,6,7,8-tetrahydropyrido[3,4-d]pyrimidine]
– | 83.4 nM | 1890 nM | 63.1 nM | – | Cc1nc2c(c(-c3ccn[nH]3)n1)CCN(C(=O)c1ccc(Cl)c(F)c1Cl)C2 [Example 53, 7-[(2,4-Dichloro-3-fluorophenyl)carbonyl]-2-methyl-4-(1H-pyrazol-5-yl)-5,6,7,8-tetrahydropyrido[3,4-d]pyrimidine]
– | 65.5 nM | – | 79.4 nM | 10.8% | O=C(c1cccc(C(F)(F)F)c1Cl)N1CCc2c(nc(C(F)(F)F)nc2-c2ccn[nH]2)C1 [Example 60, (4-(1H-pyrazol-5-yl)-2-(trifluoromethyl)-5,6-dihydropyrido[3,4-d]pyrimidin-7(8H)-yl)(2-chloro-3-(trifluoromethyl)phenyl)methanone]
– | 448 nM | 3110 nM | – | -1.2% | Cc1nc2c(c(-c3ccn[nH]3)n1)CC(C)N(C(=O)c1cccc(C#N)c1C)C2 (centres unmarked) [Example 61, 3-(2,6-dimethyl-4-(1H-pyrazol-5-yl)-5,6,7,8-tetrahydropyrido[3,4-d]pyrimidine-7-carbonyl)-2-methylbenzonitrile]
– | > 10000 nM | > 10000 nM | – | 20.1% | O=C(c1cccc(C(F)(F)F)c1Cl)N1CCc2c(ncnc2-n2cncn2)C1 [Example 110, (4-(1H-1,2,4-triazol-1-yl)-5,6-dihydropyrido[3,4-d]pyrimidin-7(8H)-yl)(2-chloro-3-(trifluoromethyl)phenyl)methanone]
– | – | – | 39.8 nM | 2.5% | O=C(c1ccc(F)c(Cl)c1Cl)N1CCc2c(ncnc2-c2cccc(F)n2)C1 [Example 129, (2,3-dichloro-4-fluorophenyl)(4-(6-fluoropyridin-2-yl)-5,6-dihydropyrido[3,4-d]pyrimidin-7(8H)-yl)methanone]
– | 11400 nM | > 10000 nM | – | 7.3% | Cc1ccc(C(=O)N2Cc3nc(C)nc(-c4ccn[nH]4)c3CC2C)c(C)c1 (centres unmarked) [Example 131, (2,6-dimethyl-4-(1H-pyrazol-5-yl)-5,6-dihydropyrido[3,4-d]pyrimidin-7(8H)-yl)(2,4-dimethylphenyl)methanone]
– | 532 nM | 7160 nM | – | -0.1% | Cc1nc2c(c(-c3ccn[nH]3)n1)CC(C)N(C(=O)c1cccc(C)c1C)C2 (centres unmarked) [Example 132, (2,6-dimethyl-4-(1H-pyrazol-5-yl)-5,6-dihydropyrido[3,4-d]pyrimidin-7(8H)-yl)(2,3-dimethylphenyl)methanone]
– | 918 nM | – | – | 0.1% | Cc1nc2c(c(-c3ccn[nH]3)n1)CC(C)N(C(=O)c1ccc(F)cc1C)C2 (centres unmarked) [Example 133, (2,6-dimethyl-4-(1H-pyrazol-5-yl)-5,6-dihydropyrido[3,4-d]pyrimidin-7(8H)-yl)(4-fluoro-2-methylphenyl)methanone]
– | 331 nM | 1270 nM | – | 0.4% | Cc1nc2c(c(-c3ccn[nH]3)n1)CC(C)N(C(=O)c1cccc(F)c1C)C2 (centres unmarked) [Example 134, (2,6-dimethyl-4-(1H-pyrazol-5-yl)-5,6-dihydropyrido[3,4-d]pyrimidin-7(8H)-yl)(3-fluoro-2-methylphenyl)methanone]
– | 492 nM | 1870 nM | – | -1% | Cc1nc2c(c(-c3ccn[nH]3)n1)CC(C)N(C(=O)c1cccc(C)c1F)C2 (centres unmarked) [Example 135, (2,6-dimethyl-4-(1H-pyrazol-5-yl)-5,6-dihydropyrido[3,4-d]pyrimidin-7(8H)-yl)(2-fluoro-3-methylphenyl)methanone]
